“And” between values parts separate entries of the source, which are not always exact repeats. Equal values may be shown once.
Experiments:
[1] = tested on: Salmonella gallinarum; assay: controlling fowl typhoid in chicks, medicated feed; assay type: in vivo, Salmonella gallinarum (in sex-linked pullet chicks); details: 10 days
Experimental: Groups of five one-day old sex-linked pullet checks are infected orally by gavage with 0.5 ml. of a 10^-^2 dilution of a five-hour Trypticase Soy Broth culture of Salmonella gallinarum, the causative agent of fowl typhoid. Each chick receives approximately 6 × 10^5 viable cells. Medication is administered continuously in the feed, beginning 3 hours before infection and continuing for 10 days, at which time the test is terminated and the number of survivors in each group recorded. Each test utilizes two control groups of chicks, the first group comprising 20 chicks which are infected and untreated, and the second group comprising 10 chicks which are uninfected and untreated. The results of the tests are set forth in the following Table III (in some instances, the results from two or more tests are combined): […]

[2] = tested on: Escherichia coli; assay: controlling colibacillosis in chicks infected with Escherichia coli, single oral dose; assay type: in vivo, Escherichia coli (in sex-linked pullet chicks); details: 12 days after treatment
Experimental: Three groups of 10 five-day old sex-linked pullet chicks are infected parenterally, in the left thoracic air sac, with 0.2 ml. of a 10^-^1 dilution of a Trypticase Soy Broth culture of Escherichia coli, the causative agent of colibacillosis in poultry. The compounds to be tested are administered by gavage as a single oral dose in an aqueous solution or suspension, and the chicks are permitted to feed ad libitum the feed composition prepared in Example 44. Twelve days after treatment, the test is terminated and the number of survivors in each group recorded.
Four groups of 40, five-day old sex-linked pullet chicks are infected in the same manner as herein set forth with Escherichia coli. […] Twelve days after treatment, the test is terminated and the number of survivors in each group recorded.

[3] = tested on: Pasteurella multocida; assay: controlling a Pasteurella multocida infection in mice; assay type: in vivo, Pasteurella multocida (in Swiss Webster female mice); details: 336 h, two weeks post-infection, read-out: Survivors/Total (converted); for responders at 0.5 mg: 0.5 mg./mouse by gavage; for responders at 0.25 mg: 0.25 mg./mouse by gavage; for responders at 1 mg: 1 mg./mouse by gavage
[4] = tested on: Pasteurella multocida; assay: as above; assay type: in vivo, Pasteurella multocida (in Swiss Webster female mice); details: 336 h, 2 mg./mouse by gavage, two weeks post-infection, read-out: Survivors/Total (converted)
Experimental: Swiss Webster, female mice weighing 22±2 g. were infected by intrapeutoneal injection of 0.5 ml. of a 5 hour Trypticase Soy Broth culture containing 10^7 cfu. of P. multocida. Each mouse was given by gavage at the time of infection 2 mg. of the test drug suspended in 0.2% agar.

[5] = enhancing the growth rate and improving feed efficiency, chicks; assay type: in vivo
Description: Day-old chicks are divided into groups of ten birds each, five males and five females. These groups are then weighted, placed in pens and given free access to water and feed. […] All feed is weighed such that an accurate determination as to the amount of gain per unit of feed can be ascertained. […]

[6] = 0.025% in feed, 10 chicks tested
[7] = 0.006% in feed, 5 chicks tested
[8] = 0.025% in feed, 5 chicks tested
[9] = 0.006% in feed, 10 chicks tested
[10] = 100 PPM in diet, average of two groups
[11] = 100 PPM in diet, groups of 10 and 9 birds, listed as 2-(2-amino-5-thiadiazolyl)-1-(2-hydroxyethyl)5-nitroimidazole
[12] = 10 ppm in diet, 10 birds, 19 days
[13] = 10 ppm in diet, 10 birds, 19 days, listed as 1-[5-(1-Methyl-5-nitro-2-imidazolyl)-1,3,4-thiadiazol-2-yl]-4-(2-thiazolyl)piper
[14] = 10 ppm in diet, 10 birds, listed as 1-[5-(1-Methyl-5-nitro-2-imidazolyl)-1,3,4-thiadiazol-2-yl]-4-(2-thiazolyl)piper

`CC(=O)Nc1nnc(-c2ncc([N+](=O)[O-])n2C)o1` [2-(2-Acetamido-5-oxadiazolyl)-1-methyl-5-nitroimidazole] gave a Survivors [1, 6] of 8 and a Survivors ([1]; 0.1% in feed, 10 chicks tested) of 10.

Work on `CC(=O)Nc1nnc(-c2ncc([N+](=O)[O-])n2C)s1` [2-(2-Acetamido-5-thiadiazolyl)-1-methyl-5-nitro-imidazole] yielded a Survivors [1, 7] of 3, a Survivors [1, 8] of 4 and a Survivors ([1]; 0.1% in feed, 5 chicks tested) of 5. The Survivors ([2]; 10 mg/kg single oral dose, 40 chicks tested) was 29, the Survivors ([2]; 20 mg/kg single oral dose, 40 chicks tested) was 35 and the Survivors ([2]; 40 mg/kg single oral dose, 40 chicks tested) was 39.

With `Nc1nnc(-c2ncc([N+](=O)[O-])n2CCO)o1` [2-(2-Amino-5-oxadiazolyl)-1-(2-hydroxyethyl)-5-nitroimidazole] the responders at 0.5 mg [3] was 90% and the responders at 2 mg [4] was 100%.

For `Nc1nnc(-c2ncc([N+](=O)[O-])n2Cc2ccccc2)o1` [2-(2-Amino-5-oxadiazolyl)-1-benzyl-5-nitroimidazole], the Survivors [1, 9] was 1, the Survivors [1, 6] was 1 and the Survivors ([1]; 0.1% in feed, 10 chicks tested) was 9.

`Nc1nnc(-c2ncc([N+](=O)[O-])n2Cc2ccccc2)s1` [2-(2-Amino-5-thiadiazolyl)-1-benzyl-5-nitroimidazole] gave a Survivors [1, 6] of 4, a Survivors ([1]; 0.1% in feed, 10 chicks tested) of 10 and a responders at 2 mg [4] of 0%.

`Nc1nnc(-c2ncc([N+](=O)[O-])n2CCO)s1` [2-(2-Amino-5-thiodiazolyl)-1-(2-hydroxyethyl)-5-nitroimidazole] gave a Survivors [1, 6] of 8, a Survivors ([1]; 0.1% in feed, 10 chicks tested) of 10 and a responders at 0.25 mg [3] of 76.7%. For the same compound, the responders at 0.5 mg [3] was 90%, the responders at 1 mg [3] was 100% and the “% inc. over Controls, F/G” value ([5]; 100 PPM in diet, 19 days) was 6.5%. For the same compound, the “% inc. over Controls, Gain” value ([5]; 100 PPM in diet, 19 days) was 7.6%, the “Average Gain 19 Days” value [5, 10] was 297 Grams and the “Average Wt. at 19 days” value [5, 10] was 340 Grams. The “Average lb. feed/lb. gain” value ([5]; 100 PPM in diet, average of two groups, 19 days) was 1.525 lb. feed/lb. gain, the lb.feed/lb. gain ([5]; 100 PPM in diet, groups of 10 and 9 birds, 19 days, listed as 2-(2-amino-5-thiadiazolyl)-1-(2-hydroxyethyl)5-nitroimidazole) was 1.53 lb. feed/lb. gain and 1.52 lb. feed/lb. gain and the “Gain 19 Days” value [5, 11] was 309 Grams and 285 Grams. The “Wt. at 19 days” value [5, 11] was 352.2 Grams and 327.8 Grams.

For `Cn1c([N+](=O)[O-])cnc1-c1nnc(NC2CCCCC2)s1` [2-(2-Cyclohexylamino-5-thiadiazolyl)-1-5-nitroimidazole], the Survivors ([1]; 0.1% in feed, 10 chicks tested) was 8.

With `Cn1c([N+](=O)[O-])cnc1-c1nnc(NC(=O)C(Cl)Cl)s1` [2-(2-Dichloroacetamido-5-thiadiazolyl)-1-methyl-5-nitroimidazole] the Survivors ([1]; 0.025% in feed, 15 chicks tested) was 3 and the Survivors ([1]; 0.1% in feed, 10 chicks tested) was 7.

`CCNc1nnc(-c2ncc([N+](=O)[O-])n2C)s1` [2-(2-Ethylamino-5-thiadiazolyl)-1-methyl-5-nitroimidazole] gave a Survivors [1, 7] of 3, a Survivors [1, 6] of 3 and a Survivors ([1]; 0.1% in feed, 10 chicks tested) of 10. The responders at 2 mg [4] was 100%.

`Cn1c([N+](=O)[O-])cnc1-c1nnc(NCO)s1` [2-(2-Hydroxymethylamino-5-thiadiazolyl)-1-methyl-5-nitroimidazole] showed a Survivors [1, 9] of 2, a Survivors [1, 6] of 2 and a Survivors ([1]; 0.1% in feed, 10 chicks tested) of 10. For the same compound, the responders at 2 mg [4] was 100%.

Work on `CNc1nnc(-c2ncc([N+](=O)[O-])n2C)o1` [2-(2-Methylamino-5-oxadiazolyl)-1-methyl-5-nitroimidazole] yielded a Survivors [1, 9] of 8, a Survivors [1, 6] of 10 and a Survivors ([1]; 0.1% in feed, 5 chicks tested) of 5.

For `Cn1c([N+](=O)[O-])cnc1-c1nnc(NC(=O)CN2CCOCC2)s1` [2-(2-Morpholinoacetamido-5-thiadiazolyl)-1-methyl-5-nitroimidazole], the Survivors [1, 8] was 1, the Survivors ([1]; 0.1% in feed, 10 chicks tested) was 10 and the responders at 2 mg [4] was 20%.

With `Cn1c([N+](=O)[O-])cnc1-c1nnc(N2CCCCC2)s1` [2-(2-Piperidino-5-thiadiazolyl)-1-methyl-5-nitroimidazole] the Survivors ([1]; 0.1% in feed, 10 chicks tested) was 4, the responders at 0.25 mg [3] was 50% and the responders at 0.5 mg [3] was 40%. The responders at 1 mg [3] was 90%, the “Gain 19 Days” value ([5]; 10 ppm in diet, 10 birds) was 292.7 Grams and the “Weight at 19 days” value ([5]; 10 ppm in diet, 10 birds) was 334.7 Grams. For the same compound, the “% Increase Over Controls, F/G” value [5, 12] was 2.7%, the “% Increase Over Controls, Gain” value [5, 12] was 1.0% and the lb.feed/lb. gain [5, 12] was 1.48 lb.feed/lb. gain.

With `CCCn1c([N+](=O)[O-])cnc1-c1nnc(N)s1` [2-(2-amino-5-thiadiazolyl)-1-propyl-5-nitroimidazolo] the Survivors ([1]; 0.1% in feed, 10 chicks tested) was 6.

For `CN(C)c1nnc(-c2ncc([N+](=O)[O-])n2CCO)o1` [2-(2-dimethylamino-5-oxadiazolyl)-1-(2-hydroxyethyl)-5-nitroimidazole], the Survivors [1, 6] was 2 and the Survivors ([1]; 0.1% in feed, 10 chicks tested) was 5.

In the case of `CNc1nnc(-c2ncc([N+](=O)[O-])n2CCO)o1` [2-(2-methylamino-5-oxadiazolyl)-1-(2-hydroxyethyl)-5-nitroimidazole], the Survivors ([1]; 0.1% in feed, 10 chicks tested) is reported as 6.

In the case of `CCCCCCNc1nnc(-c2ncc([N+](=O)[O-])n2C)s1` [2-(2-n-Hexylamino-5-thiadiazolyl)-1-methyl-5-nitroimidazole], the Survivors ([1]; 0.1% in feed, 10 chicks tested) is reported as 6, the responders at 0.25 mg [3] is reported as 20% and the responders at 0.5 mg [3] is reported as 80%. For the same compound, the responders at 1 mg [3] was 90%.

With `Cn1c([N+](=O)[O-])cnc1-c1nnc(NC(C)(C)C)s1` [2-(2-t-Butylamino-5-thiadiazolyl)-1-methyl-5-nitroimidazole] the Survivors ([1]; 0.1% in feed, 10 chicks tested) was 6.

Work on `Cn1c([N+](=O)[O-])cnc1-c1nnc(N2CCNCC2)s1` [2-[2-(1-Piperazinyl)-5-thiadiazolyl]-1-methyl-5-nitroimidazole] yielded a Survivors [1, 6] of 1, a Survivors ([1]; 0.1% in feed, 10 chicks tested) of 8 and a responders at 2 mg [4] of 10%. For the same compound, the Survivors ([2]; 40 mg/kg single oral dose, 20 chicks tested) was 6 and the Survivors ([2]; 160 mg/kg single oral dose, 20 chicks tested) was 18.

`CN1CCN(c2nnc(-c3ncc([N+](=O)[O-])n3C)s2)CC1` [2-[2-(4-Methyl-1-piperazinyl)-5-thiadiazolyl)-1-methyl-5-nitroimidazole] showed a Survivors ([1]; 0.1% in feed, 10 chicks tested) of 4.

Compound `Cn1c([N+](=O)[O-])cnc1-c1nnc(N2CCN(CCO)CC2)s1` [2-[4-(2-Hydroxyethyl)-1-piperazinyl-5-thiadiazolyl]-1-methyl-5-nitroimidazole] has a Survivors [1, 6] of 3, a Survivors ([1]; 0.1% in feed, 10 chicks tested) of 7 and a responders at 2 mg [4] of 100%.

Work on `CN(CCO)c1nnc(-c2ncc([N+](=O)[O-])n2C)s1` [2-{2-N-(2-Hydroxyethyl)methylamino]-5-thiadiazolyl}-1-methyl-5-nitroimidazolo] yielded a Survivors ([1]; 0.1% in feed, 10 chicks tested) of 8, a responders at 0.5 mg [3] of 10% and a responders at 1 mg [3] of 30%. For the same compound, the responders at 2 mg [4] was 100%.

For `Cn1c([N+](=O)[O-])cnc1-c1nnc(N2CCN(c3nccs3)CC2)s1` [2-{2-[4-(2-Thiazolyl)-1-piperazinyl]-5-thiadiazolyl]-1-methyl-5-nitroimidazole], the responders at 2 mg [4] was 20%, the “% Increase Over Controls, F/G” value [5, 13] was 4.1% and 2.0% and the “% Increase Over Controls, Gain” value [5, 13] was 5.0% and 9.0%. The lb.feed/lb. gain [5, 13] was 1.47 lb.feed/lb. gain and 1.50 lb.feed/lb. gain, the “Gain 19 Days” value [5, 14] was 315.5 Grams and 303.2 Grams and the “Weight at 19 days” value [5, 14] was 337.8 Grams and 346.9 Grams.

`CN(C)CCCC1CCN(c2nnc(-c3ncc([N+](=O)[O-])n3C)s2)CC1` [2-{2-[4-(3-Dimethylaminopropyl)-1-piperidino]-5-thiadiazolyl}-1-methyl-5-nitroimidazole] showed a responders at 0.5 mg [3] of 90% and a responders at 2 mg [4] of 100%.

In the case of `CC(=O)Nc1nnc(-c2ncc([N+](=O)[O-])n2CCO)s1` [N-{5-[1-(2-Hydroxyethyl)-5-nitro-2-imidazolyl]-1,3,4-thiadiazol-2-yl-acetamide], the “Gain 19 Days” value ([5]; 10 ppm in diet, 10 birds) is reported as 305.5 Grams, the “Weight at 19 days” value ([5]; 10 ppm in diet, 10 birds) is reported as 345.9 Grams and the “% Increase Over Controls, F/G” value [5, 12] is reported as 0.6%. The “% Increase Over Controls, Gain” value [5, 12] was 0.7% and the lb.feed/lb. gain [5, 12] was 1.57 lb.feed/lb. gain.

From patent US3991200A, “Substituted nitroimidazolyl thiadiazoles and oxadiazoles as antibacterial agents and growth promoting compounds” (American Cyanamid Company, priority 1973, dated 1976)
